In patent US8252940B2, “5-substituted-2-imino-thiazolidinone compounds and their use as inhibitors of bacterial infection” (University of Washington, priority 2008, dated 2012):

Test system: type III secretion in S. typhimurium
Test: microbe, parasite or virus in culture
Assay type: cell-based, Salmonella enterica serovar Typhimurium
Details: for inhibition at 33 µM / inhibition at 330 µM / inhibition at 3.3 µM: read-out: % inhibition of SipA secretion; for % Secretion: type III secretion in S. typhimurium, SipA secretion by Western blot
[1] = Salmonella enterica, TYPHIMURIUM

Question: COc1cc(/C=C2\S/C(=N\c3ccccc3)N(C(C(=O)N[C@@H](Cc3ccc(O)cc3)C(N)=O)C(C)C)C2=O)cc(OC)c1O (single isomer, unassigned) [compound 69] was tested. Which inhibition at 33 µM [1] did it give?
Answer: The inhibition at 33 µM was 32%.

Question: What about the inhibition at 330 µM [1] of the same compound?
Answer: Its inhibition at 330 µM is 97%.

Question: What does the source list for COc1cc(/C=C2\S/C(=N\c3ccccc3)N([C@@H](C)C(=O)N[C@@H](CCCNC(=N)N)C(N)=O)C2=O)cc(OC)c1O [Compound 2]?
Answer: SipA detected in the supernate (3.8 μM, Western blot): minimal SipA was detected; inhibition at 38 µM (Salmonella enterica, TYPHIMURIUM, read-out: inhibition of detectable secreted SipA): 100%; % Secretion: 0 ± 0%

Question: COc1ccc(N2C(=O)/C(=C/c3cc(OC)c(O)c(OC)c3)S/C2=N\c2ccccc2)cc1 [Compound 3] was tested. Which “% Secretion” value did it give?
Answer: The value was 0 ± 0%.

Question: COc1cc(/C=C2\S/C(=N\c3ccccc3)NC2=O)cc(OC)c1O [Compound 4] was tested. Which “% Secretion” value did it give?
Answer: Its value is 9 ± 6%.

Question: COc1cc(/C=C2\SC(=N)N(c3ccccc3)C2=O)cc(OC)c1O [Compound 5] was tested. Which “% Secretion” value did it give?
Answer: Its value is 81.2 ± 0%.

Question: With COc1cc(/C=C2\SC(=N)NC2=O)cc(OC)c1O [Compound 6] as the compound, how does the “% Secretion” value read?
Answer: The value was 64 ± 4%.

Question: For O=C1/C(=C/c2ccccc2)S/C(=N\c2ccccc2)N1c1ccccc1 [Compound 7], which “% Secretion” value is on record?
Answer: Its value is 90 ± 2%.

Question: Which “% Secretion” value does the source give for O=C1CS/C(=N\c2ccccc2)N1c1ccccc1 [Compound 8] here?
Answer: Its value is 62 ± 3%.

Question: COc1cc(CC2SC(=N)NC2=O)cc(OC)c1O (stereo not drawn) [Compound 9] was tested. Which “% Secretion” value did it give?
Answer: The value was 72 ± 0%.

Question: Which inhibition at 3.3 µM [1] does the source give for COc1cc(/C=C2\S/C(=N\c3ccccc3)N(CCCCCCN)C2=O)cc(OC)c1O [compound 45, (2Z,5Z)-3-(6-aminohexyl)-5-(4-hydroxy-3,5-dimethoxybenzylidene)-2-(phenylimino)-thiazolidin-4-one] here?
Answer: Its inhibition at 3.3 µM is 12%.

Question: And the inhibition at 33 µM [1]?
Answer: Its inhibition at 33 µM is 42%.

Question: What about the inhibition at 330 µM [1] of the same compound?
Answer: Its inhibition at 330 µM is 95%.

Question: Which results are given for COc1cc(/C=C2\S/C(=N\c3ccc(CN)cc3)N(c3ccccc3)C2=O)cc(OC)c1O [compound 46, (2Z,5Z)-2-(4-(aminomethyl)phenylimino)-5-(4-hydroxy-3,5-dimethoxybenzyldene)-3-phenylthiazolidin-4-one]?
Answer: % inhibition of SipA secretion (3.3 μM, Western blot): 7%; % inhibition of SipA secretion (33 μM, Western blot): 16%; % inhibition of SipA secretion (330 μM, Western blot): 85%

Question: For COc1cc(/C=C2\S/C(=N\c3ccc(CN)cc3)N(c3ccccc3)C2=O)cc(OC)c1O [compound 47, (2Z,5Z)-3-(4-(aminomethyl)phenylimino)-5-(4-hydroxy-3,5-dimethoxybenzyldene)-2-phenylthiazolidin-4-one], which “% inhibition of SipA secretion” value (3.3 μM, Western blot) is on record?
Answer: The value was 8%.

Question: And the “% inhibition of SipA secretion” value (33 μM, Western blot)?
Answer: Its value is 35%.

Question: And the “% inhibition of SipA secretion” value (330 μM, Western blot)?
Answer: The value was 100%.

Question: Which results are given for COc1cc(/C=C2\S/C(=N\c3ccccc3)N([C@@H](C)C(=O)N[C@@H](C)C(N)=O)C2=O)cc(OC)c1O [compound 49, (S)-N-((S)-1-amino-1-oxopropan-2-yl)-2-((2Z,5Z)-5-(4-hydroxy-3,5-dimethoxybenzylidene)-4-oxo-2-(phenylimino)thiazolidin-3-yl)propanamide]?
Answer: inhibition at 33 µM [1]: 26%; inhibition at 330 µM [1]: 94%

Question: How did the inhibition at 330 µM [1] turn out when COc1cc(/C=C2\S/C(=N\c3ccccc3)N([C@@H](C)C(=O)N[C@@H](Cc3ccc(O)cc3)C(N)=O)C2=O)cc(OC)c1O [compound 50, (S)-N-((S)-1-amino-3-(4-hydroxyphenyl)-1-oxopropan-2-yl)-2-((2Z,5Z)-5-(4-hydroxy-3,5-dimethoxybenzylidene)-4-oxo-2-(phenylimino)thiazolidin-3-yl)propanamide] was run?
Answer: The inhibition at 330 µM was 90%.

Question: COc1cc(/C=C2\S/C(=N\c3ccccc3)N(C(C)C(=O)N[C@@H](Cc3c[nH]c4ccccc34)C(N)=O)C2=O)cc(OC)c1O (stereo partly drawn) [compound 51, N-((S)-1-amino-3-(1H-indol-3-yl)-1-oxopropan-2-yl)-2-((2Z,5Z)-5-(4-hydroxy-3,5-dimethoxybenzylidene)-4-oxo-2-(phenylimino)thiazolidin-3-yl)propanamide] was tested. Which inhibition at 330 µM [1] did it give?
Answer: Its inhibition at 330 µM is 100%.

Question: COc1cc(/C=C2\S/C(=N\c3ccccc3)N([C@H](C)C(=O)N[C@@H](Cc3c[nH]c4ccccc34)C(N)=O)C2=O)cc(OC)c1O [compound 52, (R)-N-((S)-1-amino-3-(1H-indol-3-yl)-1-oxopropan-2-yl)-2-((2Z,5Z)-5-(4-hydroxy-3,5-dimethoxybenzylidene)-4-oxo-2-(phenylimino)thiazolidin-3-yl)propanamide] was tested. Which inhibition at 330 µM [1] did it give?
Answer: Its inhibition at 330 µM is 100%.

Question: How did the inhibition at 330 µM [1] turn out when COc1cc(/C=C2\S/C(=N\c3ccccc3)N([C@@H](C)C(=O)N[C@@H](CCCN)C(N)=O)C2=O)cc(OC)c1O [compound 54, (S)-5-amino-2-((S)-2-((2Z,5Z)-5-(4-hydroxy-3,5-dimethoxybenzylidene)-4-oxo-2-(phenylimino)thiazolidin-3-yl)propanamido)pentanamide] was run?
Answer: Its inhibition at 330 µM is 94%.

Question: For COc1cc(/C=C2\S/C(=N\c3ccccc3)N([C@@H](C)C(=O)N[C@@H](CCCNC(=N)N)C(N)=O)C2=O)cc(OC)c1O [compound 56, (S)-5-Guanidino-2-((S)-2-((2Z,5Z)-5-(4-hydroxy-3,5-dimethoxybenzylidene)-4-oxo-2-(phenylimino)thiazolidin-3-yl)propanamido)pentanamide], which inhibition at 33 µM [1] is on record?
Answer: Its inhibition at 33 µM is 1%.

Question: What about the inhibition at 330 µM [1] of the same compound?
Answer: Its inhibition at 330 µM is 100%.

Question: For COc1cc(/C=C2\S/C(=N\c3ccccc3)N(CC(=O)O)C2=O)cc(OC)c1O [compound 57, 2-((2Z,5Z)-5-(4-hydroxy-3,5-dimethoxybenzylidene)-4-oxo-2-(phenylimino)thiazolidin-3-yl)acetic acid], which inhibition at 3.3 µM [1] is on record?
Answer: The inhibition at 3.3 µM was 51%.

Question: What about the inhibition at 330 µM [1] of the same compound?
Answer: Its inhibition at 330 µM is 100%.

Question: COc1cc(/C=C2\S/C(=N\c3ccccc3)N(CCCC(=O)OC(C)(C)C)C2=O)cc(OC)c1O [compound 60, t-Butyl-4-((2Z,5Z)-5-(4-hydroxy-3,5-dimethoxybenzylidene)-4-oxo-2-(phenylimino)thiazolidin-3-yl)butanoate] was tested. Which inhibition at 3.3 µM [1] did it give?
Answer: Its inhibition at 3.3 µM is 35%.

Question: What about the inhibition at 330 µM [1] of the same compound?
Answer: The inhibition at 330 µM was 90%.

Question: With COc1cc(/C=C2\S/C(=N\c3ccccc3)N(CCCC(=O)O)C2=O)cc(OC)c1O [compound 61, 4-((2Z,5Z)-5-(4-hydroxy-3,5-dimethoxybenzylidene)-4-oxo-2-(phenylimino)thiazolidin-3-yl)butanoic acid] as the compound, how does the inhibition at 3.3 µM [1] read?
Answer: The inhibition at 3.3 µM was 70%.

Question: What about the inhibition at 330 µM [1] of the same compound?
Answer: Its inhibition at 330 µM is 74%.

Question: What does the source list for COc1cc(/C=C2\S/C(=N\c3ccccc3)N([C@H](C)C(=O)N[C@@H](CCCN)C(N)=O)C2=O)cc(OC)c1O [compound 84, (S)-5-amino-2-((R)-2-((2Z,5Z)-5-(4-hydroxy-3,5-dimethoxybenzylidene)-4-oxo-2-(phenylimino)thiazolidin-3-yl)propanamido)pentanamide]?
Answer: inhibition at 3.3 µM [1]: 5%; inhibition at 330 µM [1]: 99%

Question: How did the inhibition at 33 µM [1] turn out when COc1cc(/C=C2\S/C(=N\c3ccccc3)N([C@H](C)C(=O)N[C@@H](CCCNC(=N)N)C(N)=O)C2=O)cc(OC)c1O [compound 85, (S)-5-guanidino-2-((R)-2-((2Z,5Z)-5-(4-hydroxy-3,5-dimethoxybenzylidene)-4-oxo-2-(phenylimino)thiazolidin-3-yl)propanamido)pentanamide] was run?
Answer: Its inhibition at 33 µM is 31%.

Question: And the inhibition at 330 µM [1]?
Answer: Its inhibition at 330 µM is 99%.

Question: Which results are given for COc1cc(/C=C2\S/C(=N\c3ccccc3)N([C@@H](CCCN)C(=O)N[C@@H](C)C(N)=O)C2=O)cc(OC)c1O [compound 86]?
Answer: % inhibition of SipA secretion (3.3 μM, Western blot): 19%; % inhibition of SipA secretion (33 μM, Western blot): 46%; % inhibition of SipA secretion (330 μM, Western blot): 100%

Question: For COc1cc(/C=C2\S/C(=N\c3ccccc3)N([C@@H](CCCNC(=N)N)C(=O)N[C@@H](C)C(N)=O)C2=O)cc(OC)c1O [compound 87, (S)-N-((S)-1-amino-1-oxopropan-2-yl)-5-guanidino-2-((2Z,5Z)-5-(4-hydroxy-3,5-dimethoxybenzylidene)-4-oxo-2-(phenylimino)thiazolidin-3-yl)pentanamide], which inhibition at 3.3 µM [1] is on record?
Answer: The inhibition at 3.3 µM was 0%.

Question: What about the inhibition at 33 µM [1] of the same compound?
Answer: The inhibition at 33 µM was 38%.

Question: What about the inhibition at 330 µM [1] of the same compound?
Answer: Its inhibition at 330 µM is 100%.
